From patent publication US9353116B2, “Methods and compositions for kinase inhibition” (THE REGENTS OF THE UNIVERSITY OF CALIFORNIA, priority 2010, dated 2016)
pIC50: −log10 of the molar value. Read-outs that look alike come from different tables or passages of the source.

What was measured:
Format in all cases: biochemical
WT c-Src [1] = biological target: T1, WT c-Src (Gallus gallus (Chicken), UniProt P00523); assay: In vitro kinase assay, WT c-Src
Experimental: (§1) In vitro kinase assays for c-Src variants were performed in 50 mM Tris (pH 8.0), 10 mM MgCl2 and 1 mg/mL BSA. When obtaining kinetic parameters (kcat, Km) kinase and peptide substrate (IYGEFKKK) (SEQ ID NO:51) concentrations were 2 nM and 500 μM, respectively, while ATP concentrations ranged from 2000-0.655 μM. Addition of nonradioactive ATP supplemented with ^32P ATP (3,000 Ci/mmol, NEN) was used to initiate kinase reactions. Time points were selected such that product formation never exceeded 10%. Reactions were quenched by spotting 3 μL quantities onto phosphocellulose sheets (P81, Whatman). Afterwards, the sheets were washed 3×5 minutes in 0.5% phosphoric acid and dried. Radioactivity was measured by phosphorimaging and recorded on a Typhoon fluorescence imager (Molecular Dynamics). Data were plotted as rate (min^−1) versus ATP concentration and fitted to the Michaelis-Menten equation, v=[(kcat)[S]]/(Km+[S]), using Kaleidagraph software (Synergy) to extract kinetic parameters. When obtaining IC50 values for the inhibitors, 2% (v/v) DMSO was included in kinase reactions. In these cases ATP, peptide, and enzyme concentrations were 15 nM, 100 μM and 5 nM, respectively, while inhibitor concentrations ranged from 10,000-0.610 nM. In all cases, a ten-minute preincubation step between the kinase and the inhibitor preceded addition of ATP and a fifteen-minute reaction. The data was fitted to a sigmoidal dose-response curve using Prism 4.0c (GraphPad Software) to obtain IC50 values.

T338C c-Src [2] = biological target: T2, T338C c-Src (Gallus gallus (Chicken), UniProt P00523, T338C); assay: In vitro kinase assay, T338C c-Src (c-Src-ES1); conditions: for fold increase in inhibition of T338C relative to WT c-Src: T338C vs WT c-Src; for fold drop in potency against T338C c-Src relative to compound 9: relative to isopropyl vinylsulfonamide 9
Experimental: as §1, with “In all cases, a ten-minute preincubation step between the kinase and the inhibitor preceded addition of ATP and a fifteen-minute reaction.” left out

307 kinases = assay: Kinome-wide profiling (SelectScreen Kinase Profiling Service); conditions: compounds at 1 μM, ATP at Km,app
Experimental: The percent inhibition results in FIG. were generated with biochemical enzymatic kinase assays using the SelectScreen® Kinase Profiling Service (Life Technologies Corporation, Madison, Wis.). Compounds were assayed at 1 μM at an ATP concentration equal to the ATP Km,app for the assay following the detailed procedures described in the SelectScreen® Customer Protocol and Assay Conditions documents located at www.invitrogen.com/kinaseprofiling.
Compounds that were profiled include, but are not limited to, 3, 4, 9, 13, and 20. […] The exocyclic amine mimics N6 of ATP and plays an important role in a hydrogen bonding interaction with the hinge region of kinases.

c-Src-ES2 (T338C/V323A) = c-Src-ES2 (T338C/V323A) (Gallus gallus (Chicken), UniProt P00523, T338C/V323A); assay: In vitro kinase assay, c-Src-ES2
Experimental: as §1

c-Src-ES3 (T338C/V323S) = c-Src-ES3 (T338C/V323S) (Gallus gallus (Chicken), UniProt P00523, T338C/V323S); assay: In vitro kinase assay, c-Src-ES3; conditions: ES3 = T338C/V323S; read-out: c-Src variant IC50 (nM) ES3
Experimental: as §1

T338C c-Src [3] = biological target: T2, T338C c-Src; assay: Gel filtration and kinetic assay, T338C c-Src; conditions: 23 μM inhibitor, 25 minutes, then PD10 desalting
Experimental: (§2) Inhibitors (final concentration 23 μM) were incubated with c-Src variants (final concentration 11.5 μM) in kinase reaction buffer (50 mM Tris pH 8, 100 mM NaCl, 1 mM DTT, 5% glycerol, 5% DMSO) for 25 minutes at room temperature. The solutions (2.6 mL total) were then passed over PD10 desalting columns (GE Healthcare) using the kinase reaction buffer for elution. Src concentrations were calculated using the extinction coefficient for c-Src (51.140 mM^−1cm^−1) {Seeliger, 2005 #100}. Kinase assays were performed as described in the experimental section at a final enzyme concentration of 10 nM.

WT c-Src [4] = biological target: T1, WT c-Src; assay: Gel filtration and kinetic assay, WT c-Src; conditions: 23 μM inhibitor, 25 minutes, then PD10 desalting
Experimental: as §2

[5] = inhibitor preincubated with Src ten minutes prior to addition of ATP, read-out: WT c-Src IC50
[6] = inhibitor preincubated with Src ten minutes prior to addition of ATP, read-out: T338C c-Src IC50
[7] = 10 min preincubation with inhibitor prior to addition of ATP, read-out: IC50 against WT c-Src
[8] = 10 min preincubation with inhibitor prior to addition of ATP, read-out: IC50 against T338C c-Src

Compound | pIC50 (WT c-Src [1]; [5]) | pIC50 (T338C c-Src [2]; [6]) | further results
C=CC(=O)Nc1cccc(-c2nn(C(C)C)c3ncnc(N)c23)c1 [Compound 1, N-(3-(4-amino-1-isopropyl-1H-pyrazolo[3,4-d]pyrimidin-3-yl)phenyl)acrylamide] | 5.63 | 6.38 | 
CC(C)n1nc(-c2cccc(NC(=O)CCl)c2)c2c(N)ncnc21 [Compound 6, N-(3-(4-amino-1-isopropyl-1H-pyrazolo[3,4-d]pyrimidin-3-yl)phenyl)-2-chloroacetamide] | < 5.30 | 6.09 | 
C=CS(=O)(=O)Nc1cccc(-c2nn(C(C)C)c3ncncc23)c1 [Compound 4, N-(3-(1-isopropyl-1H-pyrazolo[3,4-d]pyrimidin-3-yl)phenyl)ethenesulfonamide] | < 5.30 | < 5.30 | pIC50 (WT c-Src [1]; [7]): ≤ 5.30; pIC50 (T338C c-Src [2]; [8]): ≤ 5.30; off-target profile in kinome-wide screen (307 kinases): relatively few off-target effects
C=CC(=O)Nc1cccc(-c2nn(C(C)C)c3ncncc23)c1 [Compound 2, N-(3-(1-isopropyl-1H-pyrazolo[3,4-d]pyrimidin-3-yl)phenyl)acrylamide] | < 5.30 | < 5.30 | pIC50 (WT c-Src [1]; [7]): ≤ 5.30; pIC50 (T338C c-Src [2]; [8]): ≤ 5.30
C=CS(=O)(=O)Nc1cccc(-c2nn(C(C)C)c3ncnc(N)c23)c1 [Compound 3, N-(3-(4-amino-1-isopropyl-1H-pyrazolo[3,4-d]pyrimidin-3-yl)phenyl)ethenesulfonamide] | 6.00 | 6.95 | IC50 (T338C c-Src [2]; ES1 = T338C, read-out: c-Src variant IC50 (nM) ES1): 111 nM; fold increase in inhibition of T338C relative to WT c-Src (T338C c-Src [2]): > 9 fold; IC50 (c-Src-ES2 (T338C/V323A); ES2 = T338C/V323A, read-out: c-Src variant IC50 (nM) ES2): 63 nM; change of inhibitor potency upon second-site Val323 mutations (c-Src-ES2 (T338C/V323A); c-Src-ES2 and c-Src-ES3 relative to c-Src-ES1): not modulated appreciably; IC50 (c-Src-ES3 (T338C/V323S)): 131 nM
C=CC(=O)Nc1cccc(Cc2nn(C(C)C)c3ncnc(N)c23)c1 [Compound 7, N-(3-((4-amino-1-isopropyl-1H-pyrazolo[3,4-d]pyrimidin-3-yl)methyl)phenyl)acrylamide] | < 5.30 | 5.56 | 
C=CS(=O)(=O)Nc1ccc(-c2nn(C(C)C)c3ncnc(N)c23)cc1 [Compound 5, N-(4-(4-amino-1-isopropyl-1H-pyrazolo[3,4-d]pyrimidin-3-yl)phenyl)ethenesulfonamide] | 6.05 | 6.84 | fold increase in inhibition of T338C relative to WT c-Src (T338C c-Src [2]): ~6 fold
Cc1ccc(-c2nn(C(C)(C)C)c3ncnc(N)c23)cc1 [PP1, reference compound] |  |  | inhibitory activity after gel filtration, T338C c-Src (T338C c-Src [3]): abrogated; inhibitory activity after gel filtration, WT c-Src (WT c-Src [4]): abrogated
C=CC(=O)Nc1ccc(Cc2nn(C(C)C)c3ncnc(N)c23)cc1 [Compound 8, N-(4-((4-amino-1-isopropyl-1H-pyrazolo[3,4-d]pyrimidin-3-yl)methyl)phenyl)acrylamide] | < 5.30 | < 5.30 | 
C=CS(=O)(=O)Nc1cccc(Cc2nn(C(C)(C)C)c3ncnc(N)c23)c1 [Compound 16, N-(3-((4-amino-1-tert-butyl-1H-pyrazolo[3,4-d]pyrimidin-3-yl)methyl)phenyl)ethenesulfonamide] | < 5.30 | 6.21 | fold drop in potency against T338C c-Src relative to compound 9 (T338C c-Src [2]): 4 fold
C=CC(=O)Nc1cccc(Nc2ncnc3cc(OC)c(OC)cc23)c1 [Compound 18, N-(3-(6,7-dimethoxyquinazolin-4-ylamino)phenyl)acrylamide] | < 5.30 | 5.78 | 
C=CS(=O)(=O)Nc1cccc(Cc2nn(C3CCCC3)c3ncnc(N)c23)c1 [Compound 17, N-(3-((4-amino-1-cyclopentyl-1H-pyrazolo[3,4-d]pyrimidin-3-yl)methyl)phenyl)ethenesulfonamide] | < 5.30 | 6.71 | 
CC(C)n1nc(Cc2cccc(NC(=O)CCl)c2)c2c(N)ncnc21 [Compound 12, N-(3-((4-amino-1-isopropyl-1H-pyrazolo[3,4-d]pyrimidin-3-yl)methyl)phenyl)-2-chloroacetamide] | < 5.30 | < 5.30 | 
CCS(=O)(=O)Nc1cccc(Cc2nn(C(C)C)c3ncnc(N)c23)c1 [Compound 11, N-(3-((4-amino-1-isopropyl-1H-pyrazolo[3,4-d]pyrimidin-3-yl)methyl)phenyl)ethanesulfonamide] | < 5.30 | 5.46 | fold drop in potency against T338C c-Src relative to compound 9 (T338C c-Src [2]): 23 fold
C=CS(=O)(=O)Nc1cccc(Cc2nn(C)c3ncnc(N)c23)c1 [Compound 15, N-(3-((4-amino-1-methyl-1H-pyrazolo[3,4-d]pyrimidin-3-yl)methyl)phenyl)ethenesulfonamide] | < 5.30 | 5.50 | fold drop in potency against T338C c-Src relative to compound 9 (T338C c-Src [2]): 21 fold
C=CS(=O)(=O)Nc1ccc(Cc2nn(C(C)C)c3ncnc(N)c23)cc1 [Compound 10, N-(4-((4-amino-1-isopropyl-1H-pyrazolo[3,4-d]pyrimidin-3-yl)methyl)phenyl)ethenesulfonamide] | 5.51 | 5.75 | 
